Test results as given in ChEMBL document CHEMBL3244413, “A phenazine analogue of actinomycin D” (1979).
*1 amine or outer side, *2 acyl side, *3 side chain or, on linkers, in order; H or OH if unused. Where a SMILES comes first, the peptide text is derived from it. Bridges are numbered along the chain shown (N, C = ends). Roman numbers before positions name the chains, in order. [ ]: non-standard residue; d: D form. Actinocin(1to9) = Cc1c2oc3c(C)ccc(C(=O)[*:2])c3nc-2c(C(=O)[*:1])c(N)c1=O; NMeV = CN[C@H](C(=O)O)C(C)C; Sar = CNCC(=O)O

Assays:
[1] = system: Calf thymus DNA; assay: Binding affinity to calf thymus DNA at 5.2 x 10^-6 M by CD spectra analysis; format: nucleic-acid assay; details: Bos taurus
[2] = system: L1210; assay: Inhibition of RNA synthesis in mouse L1210 cells by [3H]-uridine incorporation assay; format: functional; details: read-out: ED50 (the source's name)
[3] = system: L1210; assay: Inhibition of DNA synthesis in mouse L1210 cells by [3H]-thymidine incorporation assay; format: functional; details: read-out: ED50 (the source's name)

ΔTm [1]	EC50 [2]	EC50 [3]	SMILES
9.9 °C	700 nM	63000 nM	Cc1c2oc3c(C)ccc(C(=O)N[C@@H]4C(=O)N[C@H](C(C)C)C(=O)N5CCC[C@H]5C(=O)N(C)CC(=O)N(C)[C@@H](C(C)C)C(=O)O[C@@H]4C)c3nc-2c(C(=O)N[C@@H]2C(=O)N[C@H](C(C)C)C(=O)N3CCC[C@H]3C(=O)N(C)CC(=O)N(C)[C@@H](C(C)C)C(=O)O[C@@H]2C)cc1=O
3.4 °C	230 nM	9200 nM	Cc1ccc(C(=O)N[C@@H]2C(=O)N[C@H](C(C)C)C(=O)N3CCC[C@H]3C(=O)N(C)CC(=O)N(C)[C@@H](C(C)C)C(=O)O[C@@H]2C)c2nc3c(C(=O)N[C@@H]4C(=O)N[C@H](C(C)C)C(=O)N5CCC[C@H]5C(=O)N(C)CC(=O)N(C)[C@@H](C(C)C)C(=O)O[C@@H]4C)cccc3nc12
7.1 °C	15 nM	600 nM	Cc1c2oc3c(C)ccc(C(=O)N[C@@H]4C(=O)N[C@H](C(C)C)C(=O)N5CCC[C@H]5C(=O)N(C)CC(=O)N(C)[C@@H](C(C)C)C(=O)O[C@@H]4C)c3nc-2c(C(=O)N[C@@H]2C(=O)N[C@H](C(C)C)C(=O)N3CCC[C@H]3C(=O)N(C)CC(=O)N(C)[C@@H](C(C)C)C(=O)O[C@@H]2C)c(N)c1=O [DACTINOMYCIN] (I: T[dV]P[Sar][NMeV] / II: T[dV]P[Sar][NMeV]; ester I:1-I:C, II:1-II:C; linker I:N-II:N via Actinocin(1to9))
